# Like-named read-outs stand apart in the source and are kept apart here.
# Key:
# P493-6 (myc "on") cells = experiment: Cell Proliferation Assay; format: cell-based; conditions: P493-6, 72 h, read-out: Cell prolif P493 72 h IC50, P493-6 cells, 72 h
# Summary of the method: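 P493-6 cells with myc on, 10,000 per well in RPMI/10% FBS, exposed to serially diluted compound (0.5% DMSO final) for 72 h at 37 °C, 5% CO2. Antiproliferative effect read by Cell Titer Glo luminescence or Viacount FACS viability count.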
# [1] = molecular target: T1, recombinant form of Glutaminase 1 (GAC) (Homo sapiens, UniProt O94925); experiment: Recombinant Enzyme Assay - Time Dependence (60 min preincubation); format: biochemical
# T1 sequence (O94925 137-598 isoform O94925-3 limits assumed): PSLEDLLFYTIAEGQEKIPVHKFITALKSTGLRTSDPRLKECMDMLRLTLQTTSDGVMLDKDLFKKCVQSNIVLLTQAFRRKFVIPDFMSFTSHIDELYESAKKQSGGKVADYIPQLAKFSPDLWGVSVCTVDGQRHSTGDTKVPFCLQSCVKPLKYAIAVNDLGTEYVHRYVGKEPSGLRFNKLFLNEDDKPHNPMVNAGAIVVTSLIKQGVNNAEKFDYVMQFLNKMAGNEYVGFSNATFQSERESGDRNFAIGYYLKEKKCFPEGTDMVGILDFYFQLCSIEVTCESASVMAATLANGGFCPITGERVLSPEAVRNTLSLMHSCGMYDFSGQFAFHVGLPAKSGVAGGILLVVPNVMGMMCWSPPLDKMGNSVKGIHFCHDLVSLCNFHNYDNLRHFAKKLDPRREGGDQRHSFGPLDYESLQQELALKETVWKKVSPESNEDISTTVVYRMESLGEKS
# Experimental: The enzyme/compound mix was sealed with sealing foil (USA Scientific) and allowed to incubate, with mild agitation, for 60 minutes at 20° C. Enzymatic reaction was started with the addition of 50 μL of substrate solution (50 mM Tris-HCl pH 8.0, 0.2 mM EDTA, 150 mM K2HPO4, 0.1 mg/ml BSA, 1 mM DTT, 20 mM L-glutamine, 2 mM NAD^+, and 10 ppm antifoam) and read in a Molecular Devices M5 plate reader at 20° C. The plate reader was configured to read absorbance (=340 nm) in kinetic mode for 15 minutes. Data was recorded as milli-absorbance units per minute and slopes were compared to a control compound and a DMSO-only control on the same plate. Compounds with slopes less than the DMSO control were considered inhibitors and plate variability was assessed using the control compound.
# [2] = read-out: GAC Delta N2 IC50 60 min preinc
IC50 [1] [nM],SMILES,"IC50 (P493-6 (myc ""on"") cells) [nM]","IC50 [1, 2] [nM]"
3,CCCCS(=O)(=O)Cc1cccc(CC(=O)Nc2nnc(CCCCc3ccc(NC(=O)Cc4ccccc4)nn3)s2)c1 [Compound 644],13,–
–,CCOC(=O)NC(C)c1cccc(CC(=O)Nc2nnc(CCCCc3ccc(NC(=O)Cc4ccccc4)nn3)s2)c1 (stereo not drawn) [Compound 562],2,3
–,O=C(Cc1cccc(OCCCO)c1)Nc1ccc(CCCCc2nnc(NC(=O)Cc3ccccc3)s2)nn1 [Compound 539],45,9
–,O=C(Cc1cccc(Cl)c1)Nc1ccc(CCCCc2nnc(NC(=O)C(OC(=O)Cc3cccc(Cl)c3)c3cccc(Cl)c3)s2)nn1 (stereo not drawn) [Compound 449],120,110
–,O=C(Cc1ccccc1)Nc1ccc(CCCCc2nnc(NC(=O)Cc3cccc(OCC(F)(F)F)c3)s2)nn1 [Compound 665],100,5
–,COC(=O)NC(C)c1cccc(CC(=O)Nc2ccc(CCCCc3nnc(NC(=O)C(C)c4ccccc4)s3)nn2)c1 (stereo not drawn) [Compound 601],36,6
4,Cc1nccn1Cc1cccc(CC(=O)Nc2ccc(CCCCc3nnc(NC(=O)Cc4ccccc4)s3)nn2)c1 [Compound 518],63,–
–,CC(=O)Nc1ccc(CCCCc2nnc(NC(=O)Cc3cccc(CN)c3)s2)nn1 [Compound 425],15,86
–,CCOc1cc(CC(=O)Nc2nnc(CCCCc3ccc(NC(=O)Cc4ccccc4)nn3)s2)ccc1O [Compound 556],120,5
–,O=C(Cc1cccc2c1CNC2)Nc1ccc(CCCCc2nnc(NC(=O)Cc3cccc(OC(F)(F)F)c3)s2)nn1 [Compound 649],34,4
–,CN(C)Cc1cccc(CC(=O)Nc2nnc(CCCCc3ccc(NC(=O)Cc4ccccc4)nn3)s2)c1 [Compound 406],270,16
–,CC(C)(O)COc1cccc(CC(=O)Nc2nnc(CCCCc3ccc(NC(=O)Cc4ccccc4)nn3)s2)c1 [Compound 482],38,7
–,COC(=O)NC(C)c1cccc(CC(=O)Nc2nnc(CCCCc3ccc(NC(=O)Cc4ccccc4)nn3)s2)c1 (stereo not drawn) [Compound 561],4,4
–,CC(CO)(CO)C(=O)NCc1cccc(CC(=O)Nc2nnc(CCCCc3ccc(NC(=O)Cc4ccccc4)nn3)s2)c1 [Compound 581],240,11
–,O=C(Cc1ccccc1)Nc1ccc(CCCCc2nnc(NC(=O)Cc3ccc(Cl)c(Cl)c3)s2)nn1 [Compound 548],85,10
–,CC(N)c1cccc(CC(=O)Nc2nnc(CCCCc3ccc(NC(=O)Cc4ccccc4)nn3)s2)c1 (stereo not drawn) [Compound 559],66,12
–,Nc1ccc(CC(=O)Nc2nnc(CCCCc3ccc(NC(=O)Cc4ccccc4)nn3)s2)cc1 [Compound 410],57,9
–,O=C(Cc1cccc(Cl)c1)Nc1ccc(CCCCc2nnc(NC(=O)Cc3cccc(OC(F)(F)F)c3)s2)nn1 [Compound 618],35,8
–,CCNC(=O)OC(C)c1cccc(CC(=O)Nc2ccc(CCCCc3nnc(NC(=O)Cc4cccc(OC(F)(F)F)c4)s3)nn2)c1 (stereo not drawn) [Compound 596],330,15
–,CC(C)C(=O)NC(C)c1cccc(CC(=O)Nc2ccc(CCCCc3nnc(NC(=O)Cc4ccccc4)s3)nn2)c1 (stereo not drawn) [Compound 620],11,5
–,O=C(Cc1ccccc1)Nc1ccc(CCCCc2nnc(NC(=O)Cc3cccc(C(F)(F)F)c3)s2)nn1 [Compound 546],27,5
–,O=C(Cc1cccc(OCCO)c1)Nc1ccc(CCCCc2nnc(NC(=O)Cc3ccccc3)s2)nn1 [Compound 502],75,7
–,CCN(CC)C(=O)COc1cccc(CC(=O)Nc2ccc(CCCCc3nnc(NC(=O)Cc4ccccc4)s3)nn2)c1 [Compound 646],37,7
–,CC(C)(C)C(=O)NCc1cccc(CC(=O)Nc2nnc(CCCCc3ccc(NC(=O)Cc4ccccc4)nn3)s2)c1 [Compound 564],2,4
–,O=C(Cc1ccccc1F)Nc1ccc(CCCCc2nnc(NC(=O)Cc3ccccc3)s2)nn1 [Compound 520],56,7

IC50 [1] [nM],SMILES,"IC50 (P493-6 (myc ""on"") cells) [nM]","IC50 [1, 2] [nM]"
–,CC(C)CNC(=O)COc1cccc(CC(=O)Nc2ccc(CCCCc3nnc(NC(=O)Cc4ccccc4)s3)nn2)c1 [Compound 647],18,4
–,COc1cc(CC(=O)Nc2nnc(CCCCc3ccc(NC(=O)Cc4ccccc4)nn3)s2)cc(OC)c1 [Compound 398],23,4
7,CC(C)(O)Cc1cccc(CC(=O)Nc2nnc(CCCCc3ccc(NC(=O)Cc4ccccc4)nn3)s2)c1 [Compound 513],22,–
4,CC(C)CC(=O)NC(C)c1cccc(CC(=O)Nc2ccc(CCCCc3nnc(NC(=O)Cc4ccccc4)s3)nn2)c1 (stereo not drawn) [Compound 625],6,–
–,CC(O)c1cccc(CC(=O)Nc2ccc(CCCCc3nnc(NC(=O)Cc4cccc(OC(F)(F)F)c4)s3)nn2)c1 (stereo not drawn) [Compound 597],17,5
–,CC(N)c1cc(CC(=O)Nc2ccc(CCCCc3nnc(NC(=O)Cc4ccccc4)s3)nn2)ccc1F (stereo not drawn) [Compound 656],400,18
–,O=C(Cc1ccccc1)Nc1ccc(CCCCc2nnc(NC(=O)Nc3ccccc3)s2)nn1 [Compound 419],64,24
–,O=C(Cc1ccccc1)Nc1ccc(CCCCc2nnc(NC(=O)Cc3ccc(F)c(OCCO)c3)s2)nn1 [Compound 540],50,7
–,COc1ccccc1CC(=O)Nc1nnc(CCCCc2ccc(NC(=O)Cc3ccccc3F)nn2)s1 [Compound 532],59,6
–,CNCc1cccc(CC(=O)Nc2nnc(CCCCc3ccc(NC(=O)Cc4ccccc4)nn3)s2)c1 [Compound 408],190,18
–,O=C(Cc1cccs1)Nc1ccc(CCCCc2nnc(NC(=O)Cc3ccccc3)s2)nn1 [Compound 499],190,10
–,CCC(O)C(=O)NCc1cccc(CC(=O)Nc2nnc(CCCCc3ccc(NC(=O)Cc4ccccc4)nn3)s2)c1 (stereo not drawn) [Compound 575],40,7
–,CC(C)(N)c1cccc(CC(=O)Nc2ccc(CCCCc3nnc(NC(=O)Cc4ccccc4)s3)nn2)c1 [Compound 633],130,7
–,Cc1ccccc1CC(=O)Nc1nnc(CCCCc2ccc(NC(=O)Cc3ccccc3)nn2)s1 [Compound 523],55,21
–,CCCCN(C)C(=O)Cc1cccc(CC(=O)Nc2nnc(CCCCc3ccc(NC(=O)Cc4ccccc4)nn3)s2)c1 [Compound 483],9,4
–,CCNC(=O)Nc1ccc(CCCCc2nnc(NC(=O)Cc3cccc(CN)c3)s2)nn1 [Compound 421],160,290
–,O=C(Cc1ccccc1Cl)Nc1ccc(CCCCc2nnc(NC(=O)Cc3ccccc3)s2)nn1 [Compound 521],52,6
–,CCCN(C)C(=O)Cc1cccc(CC(=O)Nc2nnc(CCCCc3ccc(NC(=O)Cc4ccccc4)nn3)s2)c1 [Compound 484],11,3
–,O=C(Cc1ccccc1)Nc1ccc(CCCCc2nnc(NC(=O)Cc3cccc(Cn4cccn4)c3)s2)nn1 [Compound 395],15,4
–,CC(=O)Nc1ccc(CCCCc2nnc(NC(=O)Cc3cccc(CNC(=O)OC(C)(C)C)c3)s2)nn1 [Compound 424],8,6
–,O=C(Cc1ccccc1)Nc1ccc(CCCCc2nnc(NC(=O)Cc3cccc(CC(=O)N4CCCC4)c3)s2)nn1 [Compound 473],6,2
–,CN(C)CC(=O)NCc1cccc(CC(=O)Nc2nnc(CCCCc3ccc(NC(=O)Cc4ccccc4)nn3)s2)c1 [Compound 434],17,5
–,CC(C)(C)CNC(=O)Cc1cccc(CC(=O)Nc2nnc(CCCCc3ccc(NC(=O)Cc4ccccc4)nn3)s2)c1 [Compound 471],6,3
–,CC(C)(C)NC(=O)Cc1cccc(CC(=O)Nc2nnc(CCCCc3ccc(NC(=O)Cc4ccccc4)nn3)s2)c1 [Compound 495],14,5
–,COc1ccc(CC(=O)Nc2nnc(CCCCc3ccc(NC(=O)Cc4ccccc4)nn3)s2)cc1F [Compound 544],44,6

SMILES,IC50 [1] [nM],"IC50 (P493-6 (myc ""on"") cells) [nM]","IC50 [1, 2] [nM]"
CC(N)c1cccc(CC(=O)Nc2ccc(CCCCc3nnc(NC(=O)C(C)c4ccccc4)s3)nn2)c1 (stereo not drawn) [Compound 619],13,150,–
